Data on nine compounds can be found in patent publication US20110301142A1, “ANTAGONISTS OF LYSOPHOSPHATIDIC ACID RECEPTORS” (priority 2008, published 2011).

In one assay the target is T1, human LPA1 (Homo sapiens, UniProt Q92633).
T1 construct: the full-length cDNA for human LPA1 was obtained by PCR of the reverse transcription reaction; expressed in transfected cells
Kind of assay: LPA1 calcium flux assay (HLPA1 Ca Flux). The format is cell-based. Particulars: Human LPA1 expressing CHO cells, stimulated with 10 nM LPA. Put shortly:
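Compounds were fitted for IC50 from inhibition of the intracellular calcium rise evoked by 10 nM LPA. Test system: dye-loaded CHO cells stably transfected with human LPA1, serum-free overnight, with 30 min compound pretreatment at room temperature before stimulation.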
(Calcium assays in cells follow changes in intracellular calcium, usually with a dye or a luminescent sensor.)

The target of the next assay is T2, human LPA3 (Homo sapiens, UniProt Q9UBY5).
T2 construct: The full-length cDNA fragment for human LPA3 was obtained by PCR from the vector; expressed in transfected cells; cDNA from the Missouri S&T cDNA Resource Center
T2 sequence (Q9UBY5 1-353): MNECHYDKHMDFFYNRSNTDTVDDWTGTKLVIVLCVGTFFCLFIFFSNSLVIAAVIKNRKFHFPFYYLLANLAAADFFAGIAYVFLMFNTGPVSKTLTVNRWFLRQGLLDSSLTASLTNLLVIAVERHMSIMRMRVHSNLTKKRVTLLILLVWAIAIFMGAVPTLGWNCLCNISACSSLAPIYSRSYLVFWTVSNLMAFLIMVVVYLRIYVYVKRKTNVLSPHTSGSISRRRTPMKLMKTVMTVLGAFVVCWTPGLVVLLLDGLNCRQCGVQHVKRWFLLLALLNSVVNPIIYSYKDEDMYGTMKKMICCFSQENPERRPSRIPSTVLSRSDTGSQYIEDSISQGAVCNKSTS
Kind of assay: LPA3 calcium flux assay. The format is cell-based. Particulars: Human LPA3 expressing CHO cells, stimulated with 10 nM LPA; read-out: HLPA3 Ca Flux IC50. The gist of the method:
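Stably transfected CHO cells, serum-starved overnight, loaded with Calcium 4 dye 1 h at 37 °C in HBSS/20 mM Hepes with 0.3% fatty-acid-free HSA. Compounds preincubated 30 min at room temperature, then cells stimulated with 10 nM LPA; intracellular Ca2+ read by fluorescence; IC50 from titration curves.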

Structures are written as SMILES. pIC50: −log10 of the molar value.

T1 sequence (Q92633 whole entry): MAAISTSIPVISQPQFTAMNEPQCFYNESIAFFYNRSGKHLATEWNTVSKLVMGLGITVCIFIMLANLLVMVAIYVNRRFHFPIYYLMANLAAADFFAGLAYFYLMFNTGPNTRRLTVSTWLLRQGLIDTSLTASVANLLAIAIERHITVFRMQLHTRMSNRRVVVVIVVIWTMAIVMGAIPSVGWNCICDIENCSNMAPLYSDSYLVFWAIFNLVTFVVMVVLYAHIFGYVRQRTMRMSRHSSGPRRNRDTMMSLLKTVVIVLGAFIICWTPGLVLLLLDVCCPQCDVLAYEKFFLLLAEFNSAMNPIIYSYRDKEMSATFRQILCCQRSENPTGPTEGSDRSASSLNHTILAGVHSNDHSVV

In general, pIC50 refers to −log10 of the IC50, conventionally taken in molar units. For `Cc1noc(-c2ccc(-c3ccc(C(O)C(=O)O)cc3)cc2)c1NC(=O)O[C@H](C)c1ccccc1F` (stereo partly drawn) [Compound 1-139, (4′-{4-[(R)-1-(2-Fluoro-phenyl)-ethoxycarbonylamino]-3-methyl-isoxazol-5-yl}-biphenyl-4-yl)-hydroxy-acetic acid], the pIC50 at human LPA1 is above 6.52; at human LPA3 it was 4.30 to 6.00.

In the case of `CCC(C(=O)O)c1ccc(-c2ccc(-c3onc(C)c3NC(=O)O[C@H](C)c3ccccc3)cn2)cc1` (stereo partly drawn) [Compound 1-142], the pIC50 is above 6.52 at human LPA1 and 4.30 to 6.00 at human LPA3.

Regarding `Cc1noc(-c2ccc(-c3ccc(CC(=O)O)cc3)cc2)c1NC(=O)O[C@@H](C)c1ccccc1` [Compound 1-143, {4′-[3-Methyl-4-((S)-1-phenyl-ethoxycarbonylamino)-isoxazol-5-yl]-biphenyl-4-yl}-acetic acid], the pIC50 is above 6.52 at human LPA1 and 4.30 to 6.00 at human LPA3.

On to `Cc1noc(-c2ccc(-c3ccc(CC(=O)O)cc3)cc2)c1NC(=O)O[C@H](C)c1cccc(O)c1` [Compound 1-144, (4′-{4-[(R)-1-(3-Hydroxy-phenyl)-ethoxycarbonylamino]-3-methyl-isoxazol-5-yl}-biphenyl-4-yl)-acetic acid], for which the pIC50 is 4.30 to 6.00 on human LPA1 and below 4.30 on human LPA3.

As to `Cc1noc(-c2ccc(-c3ccc(CC#N)cc3)cc2)c1NC(=O)O[C@H](C)c1ccccc1Cl` [Compound 2-2, [5-(4′-Cyanomethyl-biphenyl-4-yl)-3-methyl-isoxazol-4-yl]-carbamic acid (R)-1-(2-chloro-phenyl)-ethyl ester], the pIC50 on human LPA1 was above 6.52; on human LPA3, 4.30 to 6.00.

As for `Cc1noc(-c2ccc(-c3ccc(CC#N)cc3)cc2)c1NC(=O)O[C@H](C)c1ccccc1F` [Compound 2-3, [5-(4′-Cyanomethyl-biphenyl-4-yl)-3-methyl-isoxazol-4-yl]-carbamic acid (R)-1-(2-fluoro-phenyl)-ethyl ester], the pIC50 on human LPA1 is above 6.52; on human LPA3 it was below 4.30.

As for `Cc1noc(-c2ccc(-c3ccc(Cc4nn[nH]n4)cc3)cc2)c1NC(=O)O[C@H](C)c1ccccc1F` [Compound 2-4, {3-Methyl-5-[4′-(2H-tetrazol-5-ylmethyl)-biphenyl-4-yl]-isoxazol-4-yl}-carbamic acid (R)-1-(2-fluoro-phenyl)-ethyl ester], the pIC50 at human LPA1 was above 6.52; at human LPA3, 4.30 to 6.00.

For `Cc1noc(-c2ccc(-c3ccc(Cc4nn[nH]n4)cc3)cc2)c1NC(=O)O[C@H](C)c1ccccc1Cl` [Compound 2-5, {3-Methyl-5-[4′-(2H-tetrazol-5-ylmethyl)-biphenyl-4-yl]-isoxazol-4-yl}-carbamic acid (R)-1-(2-chloro-phenyl)-ethyl ester], the pIC50 on human LPA1 was above 6.52; on human LPA3, 4.30 to 6.00.

On to `Cc1noc(-c2cnc(-c3ccc(CC(=O)O)cc3)s2)c1NC(=O)O[C@H](C)c1ccccc1F` [Compound 3-4, [4-(5-{4-[(R)-1-(2-Fluoro-phenyl)-ethoxycarbonylamino]-3-methyl-isoxazol-5-yl}-thiazol-2-yl)-phenyl]-acetic acid], for which the pIC50 at human LPA1 is above 6.52; on human LPA3 it was below 4.30.
